Values joined by “and” are separate entries in the source; they are usually repeats but may differ in a detail not shown here. Equal values may be shown once. Read-outs that look alike come from different tables or passages of the source.
Columns and labels:
[1] = Serial tail vein bleed PK study in SD rats: methylone measured in plasma after IV or oral methylone or oral methylone prodrugs; type: in vivo, Sprague Dawley rats; conditions: methylone in plasma, male SD rats; for half-life: read-out: T½ (converted)
How it was run: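 Three male Sprague-Dawley rats received methylone at 1 mg/kg IV (saline) or 10 mg/kg PO, or prodrugs at 10 mg/kg PO in 10% DMSO/20% PEG400/70% water, doses as methylone equivalents. Methylone measured in serial plasma samples. Non-compartmental PK parameters derived from nominal doses.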

[2] = cited from earlier work
[3] = male, Sprague-Dawley, rat, plasma, iv, 1 mg/kg, methylone 1 mg/kg IV, individual animals
[4] = male, Sprague-Dawley, rat, plasma, iv, 1 mg/kg, methylone 1 mg/kg IV, mean
[5] = male, Sprague-Dawley, rat, plasma, po, 10 mg/kg, methylone 10 mg/kg oral, individual animals
[6] = male, Sprague-Dawley, rat, plasma, po, 10 mg/kg, methylone 10 mg/kg oral, mean
[7] = methylone 1 mg/kg IV, individual animals
[8] = methylone 10 mg/kg oral, individual animals

## CNC(C)C(=O)c1ccc2c(c1)OCO2 (racemic) [Methylone, 3,4-methylenedioxy-N-methylcathinone, reference compound]
[1]; [3]
  AUC(0-t): 163 ng·h/mL
  half-life: 24.6 min
[1]; male, Sprague-Dawley, rat, plasma, iv, 1 mg/kg, methylone 1 mg/kg IV, individual animals, read-out: AUC0-inf
  AUC(0-inf): 168 ng·h/mL
[1]; male, Sprague-Dawley, rat, plasma, iv, 1 mg/kg, methylone 1 mg/kg IV, individual animals, read-out: Cmax
  Cmax: 192 ng/mL
[1]; male, Sprague-Dawley, rat, plasma, iv, 1 mg/kg, methylone 1 mg/kg IV, individual animals, read-out: Tmax
  Tmax: 15 min
[1]; [4]
  AUC(0-t): 142 ng·h/mL
  half-life: 23.7 min
[1]; male, Sprague-Dawley, rat, plasma, iv, 1 mg/kg, methylone 1 mg/kg IV, mean, read-out: AUC0-inf
  AUC(0-inf): 145 ng·h/mL
[1]; male, Sprague-Dawley, rat, plasma, iv, 1 mg/kg, methylone 1 mg/kg IV, mean, read-out: Cmax
  Cmax: 172 ng/mL
[1]; male, Sprague-Dawley, rat, plasma, iv, 1 mg/kg, methylone 1 mg/kg IV, mean, read-out: Tmax
  Tmax: 15 min
[1]; [5]
  AUC(0-t): 636 ng·h/mL
  half-life: 135 min
[1]; male, Sprague-Dawley, rat, plasma, po, 10 mg/kg, methylone 10 mg/kg oral, individual animals, read-out: AUC0-inf
  AUC(0-inf): 729 ng·h/mL
[1]; [6]
  AUC(0-t): 681 ng·h/mL
  half-life: 148 min
[1]; male, Sprague-Dawley, rat, plasma, po, 10 mg/kg, methylone 10 mg/kg oral, mean, read-out: AUC0-inf
  AUC(0-inf): 890 ng·h/mL
[1]; male, Sprague-Dawley, rat, plasma, po, 10 mg/kg, methylone 10 mg/kg oral, mean, read-out: Cmax
  Cmax: 170 ng/mL
[1]; male, Sprague-Dawley, rat, plasma, po, 10 mg/kg, methylone 10 mg/kg oral, mean, read-out: Tmax
  Tmax: 70.2 min
[1]; [7]
  AUC0-last: 134 ng·h/mL and 128 ng·h/mL
  AUC(0-inf): 136 ng·h/mL and 131 ng·h/mL
  Cmax: 165 ng/mL and 159 ng/mL
  Tlast: 2.0 h
  T½: 22.8 min and 24 min
[1]; methylone 1 mg/kg IV, mean
  Tlast: 2.0 h
[1]; [8]
  AUC0-last: 520 ng·h/mL and 888 ng·h/mL
  AUC(0-inf): 1050 ng·h/mL
  Cmax: 130 ng/mL and 119 ng/mL and 260 ng/mL
  Tlast: 7.00 h
  Tmax: 60 min and 120 min and 30 min
  T½: 160 min
[1]; methylone 10 mg/kg oral, mean
  Tlast: 7.00 h
[2]; after oral dosing, Poyatos et al., 2021
  reported time to achieve peak effects: 1 to 2 h
[2]; human, oral, modified from WHO 2014
  Oral Methylone Dose for Drug Activity Level Very Strong: ≥270 mg
[2]; re-dose of one-third to one-half the initial dose, WHO 2014
  prolongation of duration of effects by re-dose: approximately one

— patent US20250129054A1 (Terran Biosciences Inc., priority 2022, published 2025)
